{
  "source": "paper PMC3960075",
  "about": "(ACS chemical biology, 2012)",
  "key": {"[1]": {"system": "influenza A/PR/8/34", "test": "microbe, parasite or virus in culture", "assay_type": "cell-based, avian H1N1 influenza A virus (A/PuertoRico/8/34)", "settings": "for IC50: Influenza A virus, PR/8, MDCK, read-out: IC50, viral plaque inhibition"}, "[2]": {"target": "T1, PAN endonuclease (influenza virus PA N-terminal domain) (Influenza A virus, UniProt Q5EP34)", "assay_type": "binding"}, "[3]": {"target": "T1, PAN endonuclease (influenza virus PA N-terminal domain)", "assay_type": "binding", "remark": "listed apart in the source"}, "[4]": {"system": "immunoglobulin G (IgG)", "test": "Direct binding FP specificity control with IgG", "settings": "IgG 2-fold serial dilutions from 100 μM, 4 at 60 nM"}, "[5]": {"test": "in vitro", "settings": "dog"}},
  "note": "“Also recorded” adds a separate entry of the source.",
  "data": [
    {"smiles": "O=C(O)/C(O)=C/C(=O)C1(Cc2ccc(Cl)cc2)CCN(Cc2ccccc2)CC1", "note": "[Compound 2, reference compound]", "values": [
      {"measurement": "IC50", "setting": "[1]", "value": "3.13 ± 0.08", "unit": "µM"},
      {"measurement": "inhibition (displacement of 4 from PAN)", "setting": "[2]; 250 µM", "value": 100, "unit": "%"}
    ]},
    {"smiles": "O=C(O)/C(O)=C/C(=O)C1(Cc2ccc(Cl)cc2)CCN(C(=O)c2ccc(-c3c4ccc(=O)cc-4oc4cc(O)ccc34)c(C(=O)O)c2)CC1", "note": "[Compound 4]", "values": [
      {"measurement": "dynamic range", "setting": "[3]", "value": "124.3 ± 0.9", "unit": "mP"},
      {"measurement": "Non-specific binding to IgG", "setting": "[4]", "value": "not observed"}
    ]},
    {"smiles": "O=C(O)/C(O)=C/C(=O)c1cccnc1", "note": "[Compound 13]", "values": [
      {"measurement": "FP competitive binding, result in words", "setting": "[2]", "value": "inactive"}
    ]},
    {"smiles": "O=C(O)C(=O)C1=C(O)c2ccccc2OC1", "note": "[Compound 14]", "values": [
      {"measurement": "FP competitive binding, result in words", "setting": "[2]", "value": "inactive"}
    ]},
    {"smiles": "COc1ccc2c(c1)CC(C(=O)C(=O)O)=C2O", "note": "[Compound 15]", "values": [
      {"measurement": "FP competitive binding, result in words", "setting": "[2]", "value": "inactive"}
    ]},
    {"smiles": "COC(=O)/C(O)=C/C(=O)c1ccccc1", "note": "[Compound 16, reference compound]", "values": [
      {"measurement": "Inhibition of viral plaque formation, result in words", "setting": "[1]", "value": "inactive"},
      {"measurement": "IC50", "setting": "[1]", "value": "> 100", "unit": "µM"},
      {"measurement": "FP competitive binding, result in words", "setting": "[2]", "value": "inactivity"}
    ]},
    {"smiles": "CC(C)(C)OC(=O)/C(O)=C/C(=O)c1ccccc1", "note": "[Compound 17]", "values": [
      {"measurement": "FP competitive binding, result in words", "setting": "[2]", "value": "inactivity"}
    ]},
    {"smiles": "O=C(O)/C=C/C(=O)c1ccccc1", "note": "[Compound 18]", "values": [
      {"measurement": "FP competitive binding, result in words", "setting": "[2]", "value": "inactive"}
    ]},
    {"smiles": "O=C(O)CCC(=O)c1ccccc1", "note": "[Compound 19]", "values": [
      {"measurement": "FP competitive binding, result in words", "setting": "[2]", "value": "no inhibition; also recorded: inactive"}
    ]},
    {"smiles": "O=C(O)c1nc(-c2cnccn2)nc(O)c1O", "note": "[Compound 31]", "values": [
      {"measurement": "IC50", "setting": "[1]", "value": "> 50", "unit": "µM"}
    ]},
    {"smiles": "CC(NC(=O)c1nc(-c2cnccn2)[nH]c(=O)c1O)c1ccccc1", "note": "(centres unmarked) [Compound 42]", "values": [
      {"measurement": "CC50", "setting": "[5]", "value": "> 60", "unit": "µM"},
      {"measurement": "IC50", "setting": "[1]", "value": "14.28 ± 0.07", "unit": "µM"}
    ]},
    {"smiles": "O=C(NCCc1ccccc1)c1nc(-c2cnccn2)[nH]c(=O)c1O", "note": "[Compound 43]", "values": [
      {"measurement": "Inhibition of viral plaque formation, result in words", "setting": "[1]", "value": "inactive"},
      {"measurement": "IC50", "setting": "[1]", "value": "> 100", "unit": "µM"}
    ]},
    {"smiles": "C[C@H](NC(=O)c1nc(-c2cnccn2)[nH]c(=O)c1O)c1ccccc1", "note": "[Compound 44]", "values": [
      {"measurement": "CC50", "setting": "[5]", "value": "> 60", "unit": "µM"},
      {"measurement": "IC50", "setting": "[1]", "value": "18.61 ± 0.09", "unit": "µM"}
    ]},
    {"smiles": "C[C@@H](NC(=O)c1nc(-c2cnccn2)[nH]c(=O)c1O)c1ccccc1", "note": "[Compound 45]", "values": [
      {"measurement": "CC50", "setting": "[5]", "value": "> 60", "unit": "µM"},
      {"measurement": "IC50", "setting": "[1]", "value": "12.68 ± 0.08", "unit": "µM"}
    ]},
    {"smiles": "CCC(CC)O[C@@H]1C=C(C(=O)O)C[C@H](N)[C@H]1NC(C)=O", "note": "[oseltamivir carboxylate, reference compound]", "values": [
      {"measurement": "inhibition of viral plaque formation", "setting": "[1]", "value": 100, "unit": "%"}
    ]}
  ]
}
